Where a name gives a salt, the structure may show the parent alone.

For one test, the target named is T1, recombinant HAT1 (Homo sapiens, UniProt O14929).
T1 construct: FLAG (DYKDDDDK); made in house; host or cells: HEK-293f freestyle cells (human), forskolin-treated; purified by FLAG immunoprecipitation
T1 sequence (O14929 1-419): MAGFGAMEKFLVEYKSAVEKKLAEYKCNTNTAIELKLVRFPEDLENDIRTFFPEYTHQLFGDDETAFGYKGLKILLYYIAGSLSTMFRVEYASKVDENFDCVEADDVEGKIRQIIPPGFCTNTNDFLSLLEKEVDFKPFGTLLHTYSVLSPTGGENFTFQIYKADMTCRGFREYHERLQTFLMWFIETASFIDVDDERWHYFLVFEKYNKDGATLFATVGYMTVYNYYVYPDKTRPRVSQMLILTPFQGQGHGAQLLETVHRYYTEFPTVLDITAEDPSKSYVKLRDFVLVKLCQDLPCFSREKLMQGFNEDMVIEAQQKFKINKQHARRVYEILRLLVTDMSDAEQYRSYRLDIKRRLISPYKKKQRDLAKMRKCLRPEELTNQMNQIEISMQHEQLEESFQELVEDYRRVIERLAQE
As to the kind of experiment: HAT1 modulator assay (4-pentynoyl CoA, click chemistry, streptavidin-HRP fluorescence). It is filed as biochemical. To be noted: HAT1 assay; FIGS. 7B and 9. An excerpt: Provided in FIG. 4 is an exemplary embodiment of an experimental assay to identify modulators of HAT1. To begin the assay, a putative modulator is mixed with the substrate histone H4 N-terminal peptide, the acetyl-like donor 4-pentynonyl CoA, and recombinant HAT1. The H4 N-terminal peptide is the first 23 amino acids of H4 (SEQ. ID No. 1) with a biotin conjugated at the C-terminus of the peptide. Importantly, K5 and K12 of the H4 N-terminal peptide are available for di-acetylation. The 4-pentynoyl CoA is an acetyl CoA derivative having an […] extending from the acetyl group. The recombinant HAT1 is produced in human cells with a peptide tag […] (FLAG®), which is purified via immunoprecipitation.
Each reaction is carried out within a well of a 96-well plate for one hour at 37° C., resulting in pentynoylation of K5 and K12 of the substrate peptide. The reactions are transferred to a neutravidin-coated 96-well plate to capture the biotinylated peptide via a neutravidin-biotin interaction performed for one hour at room temperature. After washing the wells 3X with PBS-tween, the substrate peptides are exposed to biotinylated azide, which reacts with the pentynoyl groups in a copper (I) click chemistry reaction to further functionalize these appendages with biotin, which is performed at 37° C. for 1 hour. Substrates that were acetylated by HAT1 now have an available biotin extending from K5 and K12. After washing the wells 3X with PBS-tween, streptavidin-HRP is added to the well to bind to every available biotin for one hour at 37° C. After washing the wells 3X with PBS-tween, 10-Acetyl-3,7-dihydroxyphenoxazine (Amplex® Red ThermoFisher® Scientific, Waltham, MA) is added as a substrate of HRP and incubated for 30 minutes to produce a detectable fluorescence (570 nm excitation and 585 nm emission), which is measurable utilizing a plate reader.
The HAT1 enzymatic reaction conditions was also optimized, utilizing 0.1M EDTA, 0.1M DTT or both. As portrayed in the right panel of FIG. 5, 0.1M DTT provided the best activity and was utilized in the assay reaction.
FIG. 6 provides HAT1 enzyme kinetics (left panel) and Michaelis-Menten analysis (right panel). To perform the enzyme kinetics, various amounts of input enzyme were tested in 20 uL reaction with the amount of activity measured over time. […] Assay reactions were run with 15 μM of substrate peptide.
Consider `CC[C@@]1(O)C[C@H](O[C@H]2C[C@H](N(C)C)[C@H](O)[C@H](C)O2)c2c(O)c3c(c(O)c2[C@H]1O[C@H]1C[C@H](N(C)C)[C@H](O)[C@H](C)O1)C(=O)c1cccc(O)c1C3=O` [NSC 136044, rhodomycin A], for which the “inhibition of HAT1 activity” value is “various ability to inhibit HAT1”.

With `COc1cccc2c1C(=O)c1c(O)c3c(c(O)c1C2=O)CC(O)(/C(C)=N/O)CC3OC1CC(N)C(O)C(C)O1` (stereo not drawn) [NSC 143491, daunomycin 3-oxime hydrochloride], the “inhibition of HAT1 activity” value is on record as “various ability to inhibit HAT1”.

With `CC[C@@]1(O)C[C@H](O[C@H]2C[C@H](N(C)C)[C@H](O[C@H]3C[C@H](O)[C@H](O[C@H]4CCC(=O)[C@H](C)O4)[C@H](C)O3)[C@H](C)O2)c2c(cc3c(c2O)C(=O)c2c(O)cccc2C3=O)[C@H]1C(=O)OC` [NSC 208734, aclacinomycin A1], the “inhibition of HAT1 activity” value was “various ability to inhibit HAT1”.

As for `CC[C@@]1(O)C[C@H](O[C@H]2C[C@H](N(C)C)[C@H](O[C@H]3C[C@@H]4O[C@H]5CC(=O)[C@H](C)O[C@H]5O[C@@H]4[C@H](C)O3)[C@H](C)O2)c2c(cc3c(c2O)C(=O)c2c(O)ccc(O)c2C3=O)[C@H]1C(=O)OC` [NSC 243023, cinerubin B], the “inhibition of HAT1 activity” value is reported as “various ability to inhibit HAT1”.

For the compound `CC[C@@]1(O)C[C@H](OC2CC(N(C)C)C(OC3CC(O)C(OC4CC(O)C(O)C(C)O4)C(C)O3)C(C)O2)c2c(cc3c(c2O)C(=O)c2c(O)ccc(O)c2C3=O)[C@H]1C(=O)OC` (stereo partly drawn) [NSC 265211, Methyl (1R,2R,4S)-4-[5-[5-(4,5-dihydroxy-6-methyloxan-2-yl)oxy-4-hydroxy-6-methyloxan-2-yl]oxy-4-(dimethylamino)-6-methyloxan-2-yl]oxy-2-ethyl-2,5,7,10-tetrahydroxy-6,11-dioxo-3,4-dihydro-1H-tetracene-1-carboxylate], the “inhibition of HAT1 activity” value is given as “various ability to inhibit HAT1”.

For `COC1C(C)OC(OC2CC(C)(O)Cc3cc4c(c(O)c32)C(=O)c2c(O)cc3c(c2C4=O)OC2OC3(C)C(O)C(N(C)C)C2O)C(OC)C1(C)OC` (stereo not drawn) [NSC 265450, nagalomycin C], the “inhibition of HAT1 activity” value is reported as “various ability to inhibit HAT1”.

Regarding `CC[C@@]1(O)C[C@H](O[C@H]2C[C@H](N(C)C)[C@H](O)[C@H](C)O2)c2c(cc3c(c2O)C(=O)c2c(O)ccc(O)c2C3=O)[C@H]1C(=O)OC` [NSC 267229, pyrromycin], the “inhibition of HAT1 activity” value is listed as “various ability to inhibit HAT1”.

On to `COc1cccc2c1C(=O)c1c(O)c3c(c(O)c1C2=O)C[C@@](O)(C(C)=O)C[C@@H]3OC1CC(N(Cc2ccccc2)Cc2ccccc2)C(O)C(C)O1.Cl` (stereo partly drawn) [NSC 268242, N,N-Dibenzyldaunorubicin], for which the “inhibition of HAT1 activity” value is “various ability to inhibit HAT1”.

In the case of `CC(C)(COP(=O)(O)OP(=O)(O)OC[C@H]1O[C@@H](n2cnc3c(N)ncnc32)[C@H](O)[C@@H]1OP(=O)(O)O)[C@@H](O)C(=O)NCCC(=O)NCCSC(=O)[C@@H](N)CCCCN` [lysyl CoA, reference compound], the “inhibition of HAT1 activity” value is “did not inhibit HAT1 activity”.

The test is the same for the next values; noted with them: Michaelis-Menten analysis, H4 peptide substrate varied; FIG. 6.
As a reminder, the Km is the concentration of substrate that gives half-maximal velocity. On to “H4 peptide substrate: first 23 amino acids of H4 (SEQ. ID No. 1) with a biotin conjugated at the C-terminus [reference compound]”, for which the Km came to 13 µM.

The same test, now with this note: screen of fifty compounds; FIG. 8.
Take `O=C(O)C(O)C(O)C(=O)O.OCC(O)C(O)C(O)C(O)C(O)c1nc2ccccc2[nH]1` (stereo not drawn) [NSC 56094, 1-(1H-Benzimidazol-2-yl)hexane-1,2,3,4,5,6-hexol; 2,3-dihydroxybutanedioic acid]: the “modulation of HAT1 activity (agonist or antagonist)” value (“modulation of HAT1 activity” for short) is “agonists”.

Consider `CC1(O)Nc2nc3c(ncn3C3OC(CO)C(O)C3O)c(=O)n2C1O` (stereo not drawn) [NSC 309109, 3-[3,4-Dihydroxy-5-(hydroxymethyl)oxolan-2-yl]-6,7-dihydroxy-6-methyl-5,7-dihydroimidazo[1,2-a]purin-9-one], for which the “modulation of HAT1 activity” value is listed as “antagonists”.

Regarding `OCC(O)C(OC1OC(CO)C(O)C(O)C1O)C(O)c1cnn(-c2ccccc2)n1` (stereo not drawn) [NSC 405936, 2-(Hydroxymethyl)-6-[1,3,4-trihydroxy-1-(2-phenyltriazol-4-yl)butan-2-yl]oxyoxane-3,4,5-triol], the “modulation of HAT1 activity” value is recorded as “agonists”.

Turning to nogalarol [NSC 86005], the “modulation of HAT1 activity” value is listed as “antagonists”.

The test system of the next test is CBP/p300 acetyltransferase.
Experiment: not given
To be noted: stated as known; cited from earlier work.
Consider `CC(C)(COP(=O)(O)OP(=O)(O)OC[C@H]1O[C@@H](n2cnc3c(N)ncnc32)[C@H](O)[C@@H]1OP(=O)(O)O)[C@@H](O)C(=O)NCCC(=O)NCCSC(=O)[C@@H](N)CCCCN` [lysyl CoA, reference compound], for which the “inhibition of CBP/p300 acetyltransferase” value is “known inhibitor of CBP/p300 acetyltransferase”.

Values taken from US12625139B2, “Methods for modulation of acetyltransferase activity and applications thereof including treatments” (The Board of Trustees of the Leland Stanford Junior …, priority 2019, dated 2026).
